Results published in patent US5719278A, “Tricyclic benzazepine vasopressin antagonists” (American Cyanamid Company, priority 1996, dated 1998).

Key:
[1] = target: T1, oxytocin receptors (Rattus norvegicus, UniProt P70536); assay: Oxytocin Receptor Binding; design: species or system Sprague-Dawley rat
T1 construct: The uteri are dissected out, cleaned of fat and connective tissues; from tissue; host or cells: uterus of DES-treated female Sprague-Dawley rats
T1 sequence (P70536 1-388): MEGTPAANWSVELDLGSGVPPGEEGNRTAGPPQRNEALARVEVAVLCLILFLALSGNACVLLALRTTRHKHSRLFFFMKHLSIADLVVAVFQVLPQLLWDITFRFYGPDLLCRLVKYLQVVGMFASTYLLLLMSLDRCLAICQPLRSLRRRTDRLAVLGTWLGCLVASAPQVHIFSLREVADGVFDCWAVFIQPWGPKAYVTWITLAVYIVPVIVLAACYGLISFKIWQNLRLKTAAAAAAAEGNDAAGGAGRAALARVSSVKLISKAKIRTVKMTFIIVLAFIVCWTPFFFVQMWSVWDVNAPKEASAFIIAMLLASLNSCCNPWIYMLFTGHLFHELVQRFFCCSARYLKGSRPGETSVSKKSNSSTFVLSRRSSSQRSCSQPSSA
Procedure: Oxytocin Receptor Binding
Female Sprague-Dawley rats weighing approximately 200-250 g are injected intramuscularly (i.m.) with 0.3 mg/kg of body weight of diethylstilbestrol (DES). The rats are sacrificed 18 hours later under pentobarbital anesthesia. The uteri are dissected out, cleaned of fat and connective tissues and rinsed in 50 ml of normal saline. The tissue pooled from six rats is homogenized in 50 ml of […] TriS.HCl, containing 0.5 mM dithiothreitol and 1.0 mM EDTA, adjusted to pH 7.4, using a polytron at setting 6 with three passes of 10 sec each. The homogenate is passed through two (2) layers of cheesecloth and the filtrate contrifuged at 1000×g for 10 min. The clear supernatant is removed and recentrifuged at 165,000×g for 30 min. The resulting pellet containing the oxytocin receptors is resuspended in 50.0 mM Tris.HCl containing 5.0 mM MgCl2 at pH 7.4, to give a protein concentration of 2.5 mg/ml of tissue suspension. This preparation is used in subsequent binding assays with [^3 H]Oxytocin.
Binding of 3,5-[^3 H]Oxytocin ([^3 H]OT) to its receptors is done in microtiter plates using [^3 H]OT, at various concentrations, in an assay buffer of 50.0 mM Tris.HCl, pH 7.4 and containing 5.0 mM MgCl2, and a mixture of protease inhibitors: BSA, 0.1 mg; aprotinin, 1.0 mg; 1,10-phenanthroline, 2.0 mg; […], 10.0 mg; and PMSF, 0.3 mg per 100 ml of buffer solution. Non-specific binding is determined in the presence of 1.0 uM unlabeled OT. The binding reaction is terminated after 60 min., at 22° C., by rapid filtration through glass fiber filters using a Brandel® cell harvester (Biomedical Research and Development Laboratories, Inc., Gaithersburg, Md.). Competition experiments are conducted at equilibrium using 1.0 nM [^3 H]OT and varying the concentration of the displacing agents. The concentrations of agent displacing 50% of [^3 H]OT at its sites (IC50) are calculated by a computer assisted LUNDON-2 program (LUNDON SOFTWARE INC., Ohio, U.S.A.).

[2] = system: Vasopressin V2; assay: Vasopressin V2 Antagonist Activity in Conscious Hydrated Rats; format: in vivo, rat; conditions: 10 mg/kg orally, N = 2, AVP 0.4 μg/kg intraperitoneally; for Osmolality (mOsm/kg): urine
Procedure: Vasopressin V2 Antagonist Activity in Conscious Hyrdated Rats
Conscious hydrated rats are treated with compounds under study from 0.1 to 100 mg/kg orally or vehicle. Two to four rats are used for each compound. One hour later, arginine vasopressin (AVP, antidiuretic hormone, ADH) dissolved in peanut oil is administered at 0.4 μg/kg intraperitoneally. Two rats in each test would not receive arginine vasopressin but only the vehicle (peanut oil) to serve as water-loading control. Twenty minutes later each rat is given 30 mL/kg of deionized water orally by gavage and is placed individually in a metabolic cage equipped with a funnel and a graduated glass cylinder to collect urine for four hours. Urine volume is measured and osmolality analyzed by use of a Fiske One-Ten osmometer (Fiske Assoc., Norwood, Mass. U.S.A.). Urinary sodium, potassium, and chloride are analyzed by use of ion-specific electrodes in a Beckman E3(Electrolyte 3) Analyzer.
In the following results, […] and decreased osmolality relative to AVP-control indicates activity.

[3] = target: T2, Rat Kidney Medullary V2 Receptors (Rattus norvegicus, UniProt Q00788); assay: Binding Assay to Rat Kidney Medullary V2 Receptors; conditions: for IC50: Rat Kidney Medullary V2 Receptors (no asterisk)
T2 construct: Medullary tissues from rat kidneys are dissected out; from tissue; host or cells: rat kidney medulla membranes
Procedure: Binding Assay to Rat Kidney Medullary V2 Receptors
Medullary tissues from rat kidneys are dissected out, cut into small pieces and let soak in a […] sodium chloride solution containing 1.0 mM EDTA with many changes of the liquid phase, until the solution is clear of blood. The tissue is homogenized in a 0.25M sucrose solution containing 1.0 mM EDTA and 0.1 mM PMSF using a Potter-Elvehjem homogenizer with a teflon pestle. The homogenate is filtered through several layers (4 layers) of cheese cloth. The filtrate is rehomogenized using a dounce homogenizer, with a tight fitting pestle. The final homogenate is contrifuged at 1500×g for 15 min. The nuclear pellet is discarded and the supernatant fluid recentrifuged at 40,000×g for 30 min. The resulting pellet formed contains a dark inner part with the exterior, slightly pink. The pink outer part is suspended in a small amount of 50.0 mM Tris.HCl buffer, pH 7.4. The protein content is determined by the Lowry's method (Lowry et al, J. Biol. Chem., 1953). The membrane suspension is stored at -70° C., in 50.0 mM Tris.HCl, containing 0.2% inactivated BSA and 0.1 mM PMSF in aliquots of 1.0 ml containing 10.0 mg protein per ml of suspension until use in subsequent binding experiments.
For binding experiments, the following is added in μl volume to wells of a 96 well format of a microtiter plate: 100.0 μl of 100.0 mM Tris.HCl buffer containing 0.2% heat inactivated BSA, 10.0 mM MgCl2 and a mixture of protease inhibitors: leupeptin, 1.0 mg %; aprotinin, 1.0 mg %; 1,10-phenanthroline, 2.0 mg %; trypsin inhibitor, 10.0 mg % and 0.1 mM PMSF, 20.0 μl of [^3 H]Arginine^8, vasopressin (S.A. 75.0 Ci/mmole) at 0.8 nM and the reaction initiated by the addition of 80.0 μl of tissue membranes (200.0 μg tissue protein). The plates are left undisturbed on the bench top for 120 min. to reach equilibrium. Non-specific binding is assessed in the presence of 1.0 μM of unlabeled ligand, added in 20 μl volume. For test compounds, these are solubilized in 50% dimethylsulfoxide (DMSO) and added in 20.0 μl volume to a final incubation volume of 200 μl. Upon completion of binding, the content of each well is filtered off, using a Brandel® cell Harvester (Gaithersburg, Md.). The radioactivity trapped on the filter disk by the ligand-receptor complex is assessed by liquid scintillation counting in a Packard LS Counter, with an efficiency of 65% for tritium. The data are analyzed for IC50 values by the LUNDON-2 program for competition (LUNDON SOFTWARE, Ohio).

[4] = target: T3, V1 Receptor Subtype in Human Platelet (Homo sapiens, UniProt P37288); assay: Binding to Vasopressin V1 Receptor Subtype in Human Platelet Membranes
T3 construct: from tissue; host or cells: human platelets (platelet rich plasma from Hudson Valley Blood Services)
Procedure: Radioligand Binding Experiments with Human Platelet Membranes
Platelet Source: Hudson Valley Blood Services, Westchester Medical Center, Valhalla, N.Y.
Frozen platelet rich plasma (PRP), received from the Hudson Valley Blood Services are thawed to room temperature. The tubes containing the PRP are centrifuged at 16,000×g for 10 min. at 4° C. and the supernatant fluid discarded. The platelets resuspended in an equal volume of 50.0 mM Tris.HCl, pH 7.5 containing 120 mM NaCl and 20.0 mM EDTA. The suspension is recentrifuged at 16,000×g for 10 min. This washing step is repeated one more time. The wash is discarded and the lysed pellets homogenized in low ionic strength buffer of Tris.HCl, 5.0 mM, pH 7.5 containing 5.0 mM EDTA. The homogenate is centrifuged at 39,000×g for 10 min. The resulting pellet is resuspended in Tris.HCl buffer, 70.0 mM, pH 7.5 and recentrifuged at 39,000×g for 10 min. The final pellet is resuspended in 50.0 mM Tris.HCl buffer pH 7.4 containing 120 mM NaCl and 5.0 mM HCl to give 1.0-2.0 mg protein per ml of suspension.
Binding to Vasopressin V1 Receptor Subtype in Human Platelet Membranes:
In wells of a 96 well format microtiter plate, add 100 μl of 50.0 mM Tris.HCl buffer containing 0.2% BSA and a mixture of protease inhibitors (aprotinin, leupeptin etc.). Then add 20 μl of [^3 H]Ligand: (Manning or Arg^8 Vasopressin), to give final concentrations ranging from 0.01 to 10.0 nM. Initiate the binding by adding 80.0 μl of platelet suspension (approx. 100 μg protein). Mix all reagents by pipetting the mixture up and down a few times. Non-specific binding is measured in the presence of 1.0 μM of unlabeled ligand (Manning or Arg^8 Vasopressin). Let the mixture stand undisturbed at room temperature for ninety (90) min. Upon this time, rapidly filter off the incubate under vacuum suction over GF/B filters, using a Brandel® Harvester. Determine the radioactivity caught on the filter disks by the addition of liquid scintillant and counting in a liquid scintillator

T2 sequence (Q00788 whole entry): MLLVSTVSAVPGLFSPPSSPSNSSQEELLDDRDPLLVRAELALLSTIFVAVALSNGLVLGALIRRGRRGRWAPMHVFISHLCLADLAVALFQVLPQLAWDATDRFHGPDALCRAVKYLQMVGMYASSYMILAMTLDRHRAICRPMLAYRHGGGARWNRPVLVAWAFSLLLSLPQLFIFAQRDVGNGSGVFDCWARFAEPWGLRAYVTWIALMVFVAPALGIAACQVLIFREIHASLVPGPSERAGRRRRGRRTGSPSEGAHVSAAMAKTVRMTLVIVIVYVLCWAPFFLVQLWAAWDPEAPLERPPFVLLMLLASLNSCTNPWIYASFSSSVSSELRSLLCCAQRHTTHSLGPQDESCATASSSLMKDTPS
T3 sequence (P37288 whole entry): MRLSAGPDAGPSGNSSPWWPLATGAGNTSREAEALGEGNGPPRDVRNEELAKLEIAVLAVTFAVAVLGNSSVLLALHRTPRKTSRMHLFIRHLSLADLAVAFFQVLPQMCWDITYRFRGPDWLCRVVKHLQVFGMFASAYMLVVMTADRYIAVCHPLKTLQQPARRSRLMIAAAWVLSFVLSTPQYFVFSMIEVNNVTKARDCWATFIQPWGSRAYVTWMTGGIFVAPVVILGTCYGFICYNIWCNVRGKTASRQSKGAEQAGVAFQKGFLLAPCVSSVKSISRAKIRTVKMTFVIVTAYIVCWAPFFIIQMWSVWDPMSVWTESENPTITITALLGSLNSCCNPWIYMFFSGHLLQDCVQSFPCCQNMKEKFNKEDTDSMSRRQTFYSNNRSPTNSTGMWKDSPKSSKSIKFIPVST

| Compound | inhibition at 10 µM [1] | IC50 [3] | Urine Vol. (ml/4 hrs.) [2] | Osmolality (mOsm/kg) [2] | also measured |
| --- | --- | --- | --- | --- | --- |
| O=C(Nc1ccc(C(=O)N2CCc3cn[nH]c3-c3ncccc32)c(Cl)c1)c1ccccc1-c1ccccc1 [Example 366, N-[4-[(4,5-Dihydropyrazolo[3,4-d]pyrido[3,2-b]azepin-6(1H)-yl)carbonyl]-3-chlorophenyl][1,1'-biphenyl]-2-carboxamide] | – | – | 17.8 ml/4 hrs. | 431 mOsm/kg | – |
| O=C(c1ccc(-c2ccccc2)cc1)N1CCc2cn[nH]c2-c2ncccc21 [Example 364, 6-([1,1'-Biphenyl]-4-ylcarbonyl)-1,4,5,6-tetrahydropyrazolo[3,4-d]pyrido[3,2-b]azepine] | – | – | – | – | inhibition at 1 µM ([3]; Rat Kidney Medullary V2, at 1 μM): 17%; inhibition at 10 µM ([4]; 1.5 h, *Human Platelet V1, at 10 μM): 77% |
| Cn1cc2c(n1)-c1sccc1N(C(=O)c1ccc(NC(=O)c3ccc(Cl)cc3Cl)cc1)CC2 [Example 5, N-[4-[[4,5-Dihydro-2-methylpyrazolo[3,4-d]thieno[3,2-b]-azepin-6-(2H)-yl]carbonyl]phenyl]2,4-dichlorobenzamide] | 47% | – | – | – | – |
| Cc1ccc(F)cc1C(=O)Nc1ccc(C(=O)N2CCc3c[nH]nc3-c3sccc32)c(Cl)c1 [Example 3, N-[4-[(4,5-Dihydropyrazolo[3,4]thieno[3,2-b]azepin-6-(1H)-yl)carbonyl]-3-chlorophenyl]-5-fluoro-2-methylbenzamide] | – | 0.0061 µM | – | – | – |
| O=C(Nc1ccc(C(=O)N2CCc3cn[nH]c3-c3sccc32)c(Cl)c1)c1cc(Cl)ccc1F [Example 4, N-[4-[(4,5-Dihydropyrazolo[3,4-d]thieno[3,2-b]azepin-6(1H)-yl)carbonyl]-3-chlorophenyl]-5-chloro-2-fluorobenzamide] | – | 0.036 µM | – | – | – |
| O=C(Nc1ccc(C(=O)N2CCc3c[nH]nc3-c3ncccc32)cn1)c1ccccc1-c1ccccc1 [Example 368, N-[5-[(4,5-Dihydro[3,4-d]pyrido[3,2-b]azepin-6(1H)-yl)carbonyl]-2-pyridinyl][1,1'-biphenyl]-2-carboxamide] | – | – | 20.3 ml/4 hrs. | 371 mOsm/kg | – |

Continued, in another order:

| inhibition at 10 µM [1] | IC50 [3] | Compound | Urine Vol. (ml/4 hrs.) [2] | Osmolality (mOsm/kg) [2] | also measured |
| --- | --- | --- | --- | --- | --- |
| 57% | – | Cc1ccccc1C(=O)Nc1ccc(C(=O)N2CCc3cn(C)nc3-c3sccc32)cc1 [Example 361] | – | – | IC50 ([1]; 1.0 nM [^3 H]OT, 60 min., 22° C.): 6400 nM |
| 65% | – | Cc1ccccc1C(=O)Nc1ccc(C(=O)N2CCc3c[nH]nc3-c3sccc32)cc1 [Example 7, N-[4-[[4,5-Dihydropyrazolo[3,4-d]thieno[3,2-b]azepin-6(2H)-yl]carbonyl]phenyl]-2-methylbenzamide] | 20.8 ml/4 hrs. | 322 mOsm/kg | – |
| – | 0.55 µM | Cc1ccc(F)cc1C(=O)Nc1ccc(C(=O)N2CCc3cn[nH]c3-c3cccnc32)cc1 [Example 16, N-[4-[(4,5-Dihydropyrazolo[3,4-d]pyrido[2,3-b]azepin-6(1H)-yl)carbonyl]phenyl]-5-fluoro-2-methylbenzamide] | – | – | IC50 ([4]; *Binding to V1 Receptor Subtype in Human Platelet): 3.3 µM |
